As a reminder, the solubility (mole fraction) is solubility expressed as the solute's share of all molecules. `CC(C)c1ccc(N=C2SCC3CCCN2C3)cc1` (stereo not given): the solubility (mole fraction) is 0.00135 (in n-hexane, 293.15 K); 0.00158 (in n-hexane, 298.15 K); 0.00195 (in n-hexane, 303.15 K); 0.00246 (in n-hexane, 310.15 K); 0.00288 (in n-hexane, 315.15 K); 0.143 (in n-octanol, 293.15 K). Moreover, the solubility (mole fraction) runs as follows: (in n-octanol, 298.15 K) 0.154; (in n-octanol, 303.15 K) 0.164; (in n-octanol, 310.15 K) 0.182; (in n-octanol, 315.15 K) 0.194.

With `CCc1ccc(N=C2SCC3CCCN2C3)cc1` (stereo not given), the solubility (mole fraction) by setting is: (in n-hexane, 293.15 K) 0.000225; (in n-hexane, 298.15 K) 0.000289; (in n-hexane, 303.15 K) 0.000382; (in n-hexane, 310.15 K) 0.000537; (in n-hexane, 315.15 K) 0.000673; (in n-octanol, 293.15 K) 0.0124. Moreover, the solubility (mole fraction) reads like this: (in n-octanol, 298.15 K) 0.0139; (in n-octanol, 303.15 K) 0.0163; (in n-octanol, 310.15 K) 0.0194; (in n-octanol, 315.15 K) 0.0224.

With `CC(=O)c1ccc(N=C2SCC3CCCN2C3)cc1` (stereo not given), the solubility (mole fraction) amounted to 0.000144 (in n-hexane, 293.15 K); 0.000176 (in n-hexane, 298.15 K); 0.000215 (in n-hexane, 303.15 K); 0.00028 (in n-hexane, 310.15 K); 0.000344 (in n-hexane, 315.15 K); 0.0075 (in n-octanol, 293.15 K). Further, the solubility (mole fraction) is, setting by setting: (in n-octanol, 298.15 K) 0.0093; (in n-octanol, 303.15 K) 0.0118; (in n-octanol, 310.15 K) 0.0156; (in n-octanol, 315.15 K) 0.0202.

In the case of `Cc1ccc(N=C2SCC3CCCN2C3)cc1` (stereo not given), the solubility (mole fraction) reads like this: (in n-hexane, 293.15 K) 0.0033; (in n-hexane, 298.15 K) 0.00465; (in n-hexane, 303.15 K) 0.00654; (in n-hexane, 310.15 K) 0.0104; (in n-hexane, 315.15 K) 0.0135; (in n-octanol, 293.15 K) 0.145. The solubility (mole fraction) reads like this: (in n-octanol, 298.15 K) 0.157; (in n-octanol, 303.15 K) 0.171; (in n-octanol, 310.15 K) 0.193; (in n-octanol, 315.15 K) 0.209.

For the compound `FC(F)(F)c1ccc(N=C2SCC3CCCN2C3)cc1` (stereo not given), the solubility (mole fraction) is, setting by setting: (in n-hexane, 293.15 K) 0.000248; (in n-hexane, 298.15 K) 0.000286; (in n-hexane, 303.15 K) 0.000339; (in n-hexane, 310.15 K) 0.000402; (in n-hexane, 315.15 K) 0.00046; (in n-octanol, 293.15 K) 0.0118. Moreover, the solubility (mole fraction) is, setting by setting: (in n-octanol, 298.15 K) 0.0132; (in n-octanol, 303.15 K) 0.0146; (in n-octanol, 310.15 K) 0.0171; (in n-octanol, 315.15 K) 0.0189.

On to `N#Cc1ccc(N=C2SCC3CCCN2C3)cc1` (stereo not given), for which the solubility (mole fraction) runs as follows: (in n-hexane, 293.15 K) 0.000223; (in n-hexane, 298.15 K) 0.000271; (in n-hexane, 303.15 K) 0.000337; (in n-hexane, 310.15 K) 0.000422; (in n-hexane, 315.15 K) 0.000523; (in n-octanol, 293.15 K) 0.0087. Also, the solubility (mole fraction) is, setting by setting: (in n-octanol, 298.15 K) 0.0107; (in n-octanol, 303.15 K) 0.0131; (in n-octanol, 310.15 K) 0.0166; (in n-octanol, 315.15 K) 0.0202.

Turning to `Fc1ccc(N=C2SCC3CCCN2C3)cc1` (stereo not given), the solubility (mole fraction) came to 0.0015 (in n-hexane, 293.15 K); 0.00187 (in n-hexane, 298.15 K); 0.00224 (in n-hexane, 303.15 K); 0.00294 (in n-hexane, 310.15 K); 0.00359 (in n-hexane, 315.15 K); 0.0245 (in n-octanol, 293.15 K). Besides, the solubility (mole fraction) reads like this: (in n-octanol, 298.15 K) 0.0296; (in n-octanol, 303.15 K) 0.0354; (in n-octanol, 310.15 K) 0.0469; (in n-octanol, 315.15 K) 0.0567.

For the compound `Cc1ccc(N=C2SCC3CCCN2C3)cc1Cl` (stereo not given), the solubility (mole fraction) by setting is: (in n-hexane, 293.15 K) 7.1e-05; (in n-hexane, 298.15 K) 8.71e-05; (in n-hexane, 303.15 K) 0.000106; (in n-hexane, 310.15 K) 0.000134; (in n-hexane, 315.15 K) 0.000161; (in n-octanol, 293.15 K) 0.00305. In addition, the solubility (mole fraction) runs as follows: (in n-octanol, 298.15 K) 0.00377; (in n-octanol, 303.15 K) 0.00454; (in n-octanol, 310.15 K) 0.00605; (in n-octanol, 315.15 K) 0.00736.
